# Patent US20260272865A1, “HYDROXYPHENYL PROPANOATE COMPOUNDS FOR TUMOUR IMMUNOTHERAPY, COMPOSITIONS AND USES THEREOF” (UTI LIMITED PARTNERSHIP, priority 2023, published 2026)
# Experiments:
# [1] = system: B16.F10 melanoma tumours; assay: Subcutaneous B16.F10 melanoma in IMDM-CR mice: overall survival; format: in vivo, mouse
# [2] = system: OVA-specific CD8 T cells; assay: Flow cytometry of OVA-specific CD8 T cells within M3-9-M^OVA tumours; format: in vivo, mouse; settings: male IMDM-CR mice, 18 days after implantation
# Method: Tumours were isolated from mice and single cell suspensions were made using a mouse tumour dissociation kit following the manufacturer's instructions (Miltenyi Biotec). The isolated tumours were minced into pieces ~2-4 mm in diameter using a sterile scalpel, homogenized the tumour samples in RPMI 1640 media and enzyme mix for 1 minute, and incubated the homogenates for 40 minutes with continuous gentle shaking at 37° C. The homogenates were then filtered through a 70 μm cell strainer followed by centrifuging the single cell suspensions. The red blood cells (RBC) were removed using RBC lysis buffer. A Percoll gradient based leukocyte separation was performed followed by live and dead cell staining using Zombie Aqua dye (BioLegend). Cell surface markers were stained using ant-CD4-FITC (clone RM4-4, BioLegend), anti-CD8-PE.Cy7 (clone 53-6.7, BioLegend), anti-CD3-BV421 (clone 145-2C11, BioLegend), anti-CD45-APC.Cy7 (clone 30-F11, BioLegend), anti-PD-1-FITC (clone 29F.1A12, BioLegend), anti-TIM3-PE (clone RMT3-23, BioLegend) and anti-LAG3-PerCP/Cy5.5 (clone C9B7W, BioLegend) for T lymphocytes. For OVA-specific CD8 T cell detection, H-2K(b) chicken ova 257-264 human B2M SIINFEKL Alexa 647-labeled tetramer was used. The cells were washed after staining with FACS buffer and quantified using the Attune NxT Flow Cytometer (Thermo Fisher Scientific).
# [3] = molecular target: T1, GSDMD (Homo sapiens, UniProt P57764); assay: Thermal proteomic profiling (TPP) in intact THP1-Dual cells; format: binding
# T1 construct: host or cells: THP1-Dual cells (human monocytic reporter line)
# T1 sequence (P57764 1-484): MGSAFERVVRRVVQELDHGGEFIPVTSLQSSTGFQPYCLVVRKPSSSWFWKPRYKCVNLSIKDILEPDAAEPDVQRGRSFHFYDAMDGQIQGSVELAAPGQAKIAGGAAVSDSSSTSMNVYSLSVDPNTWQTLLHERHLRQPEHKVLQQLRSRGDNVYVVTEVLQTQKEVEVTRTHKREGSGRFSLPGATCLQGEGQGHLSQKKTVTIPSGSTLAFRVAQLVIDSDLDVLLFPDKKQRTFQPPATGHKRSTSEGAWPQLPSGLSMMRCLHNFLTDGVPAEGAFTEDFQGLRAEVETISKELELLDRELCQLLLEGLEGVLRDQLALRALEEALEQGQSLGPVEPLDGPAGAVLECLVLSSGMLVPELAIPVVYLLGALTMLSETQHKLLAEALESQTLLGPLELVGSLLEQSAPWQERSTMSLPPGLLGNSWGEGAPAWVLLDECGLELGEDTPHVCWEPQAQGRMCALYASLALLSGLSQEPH
# Method: 24 mL of THP1-Dual™ cells (at a density of 1.5×10^6 cells/mL) were treated with 2 mM metabolite or vehicle control for 16 hours. The cells were then centrifuged at 340×g for 5 minutes at 4° C., resuspended in 20 mL of ice-cold PBS, and centrifuged again. The cells were resuspended in 1200 μL of PBS, divided into 10 aliquots of 100 μL in 0.2 mL PCR tubes and centrifuged at 325×g for 2 minutes at 4° C. 80 μL of the PBS supernatant was removed using a pipette and the tubes were gently tapped to resuspend the cells. Each of the metabolite and vehicle-treated cell tubes were then heated in parallel in a PCR machine for 3 minutes at temperatures ranging from 37° C. to 67° C. […] The entire content was centrifuged at 100,000×g for 20 minutes at 4° C., the supernatant was removed into a fresh tube, and the protein concentration of the 37° C. sample was measured. […] The volume of lysate that gave 200 μg of protein at the 37° C. temperature point was determined and removed into a fresh tube for all other temperature points.
# The proteins were cleaned up and the peptides digested following previously described methods (Science 346, (2014); Nat. Protoc. 10, 1567-1593 (2015)). […] The next day, the digested peptides were transferred to a fresh Eppendorf™ tube and the concentration of peptides measured in the 37° C. temperature point. […]
smiles,measurement,setting,value
"O=C(O)CCc1ccccc1O [Compound I-1, 3-(2-hydroxyphenyl)propanoic acid]","overall survival, treatment initiated seven days after implantation","[1]; IMDM-CR mice, B16.F10, treatment started 7 days after implantation",still effective
same,"overall survival, combination with anti-PD-L1 vs anti-PD-L1 alone","[1]; female IMDM-CR mice, B16.F10 tumours, 3,2-HPP i.p. plus anti-PD-L1",further improvement
same,overall survival / immune surveillance of B16.F10 melanoma,"[1]; female IMDM-CR mice, i.p. treatment from day 1",increased the overall survival
same,"expression of exhaustion markers PD1, TIM3, LAG3 on OVA-specific CD8 T cells",[2],no significant changes
same,frequency of OVA-specific CD8 T cells in the tumour,[2],increase the frequency
same,GSDMD protein denaturation curve,[3]; NPARC test,impacted
same,number of potential protein targets identified (NPARC),"[3]; proteome-wide, 2 mM metabolite, 16 hours",647
